US20260262643A1, “HERBICIDAL BENZOXAZINES” (FMC CORPORATION, priority 2022, published 2026)

Assays:
[1] = tested on: pigweed, palmer; assay: Test A postemergence; assay type: in vivo, Amaranthus palmeri; conditions: postemergence, 10 days; for Pigweed, Palmer plant response rating: 125 g ai/ha, 0 to 100 scale, 0 no effect, 100 complete control; for Plant response rating, Pigweed, Palmer: 500 g ai/ha, visual injury, 0 to 100 scale (0 no effect, 100 complete control)
Summary of the method: (§1)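 Loam/sand soil; pre-em directed soil spray at planting, post-em spray at 1–2 leaf (2–10 cm). Compound in non-phytotoxic solvent + surfactant. Greenhouse 10 d; visual injury vs untreated, 0 = no effect, 100 = complete control.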

[2] = tested on: foxtail, giant; assay: Test A preemergence; assay type: in vivo, Setaria faberi; conditions: 0 to 100 scale
Summary of the method: as §1

[3] = tested on: ryegrass, Italian; assay: Test A preemergence; assay type: in vivo, Lolium multiflorum; conditions: 0 to 100 scale
Summary of the method: as §1

[4] = tested on: soybean; assay: Test A preemergence; assay type: in vivo, Glycine max; conditions: 0 to 100 scale
Summary of the method: as §1

[5] = tested on: blackgrass; assay: Test A preemergence; assay type: in vivo, Alopecurus myosuroides; conditions: 0 to 100 scale
Summary of the method: as §1

[6] = tested on: pigweed, palmer; assay: Test A preemergence; assay type: in vivo, Amaranthus palmeri; conditions: 0 to 100 scale
Summary of the method: as §1

[7] = tested on: wheat; assay: Test A postemergence; assay type: in vivo, Triticum aestivum; conditions: postemergence, 10 days; for Wheat plant response rating: 125 g ai/ha, 0 to 100 scale, 0 no effect, 100 complete control; for Plant response rating, Wheat: 500 g ai/ha, visual injury, 0 to 100 scale (0 no effect, 100 complete control)
Summary of the method: as §1

[8] = tested on: oat, wild; assay: Test A postemergence; assay type: in vivo, Avena fatua; conditions: postemergence, 10 days; for Oat, Wild plant response rating: 125 g ai/ha, 0 to 100 scale, 0 no effect, 100 complete control; for Plant response rating, Oat, Wild: 500 g ai/ha, visual injury, 0 to 100 scale (0 no effect, 100 complete control)
Summary of the method: as §1

[9] = tested on: ragweed; assay: Test A preemergence; assay type: in vivo, Ambrosia artemisiifolia; conditions: 0 to 100 scale
Summary of the method: as §1

[10] = tested on: corn; assay: Test A preemergence; assay type: in vivo, Zea mays; conditions: 0 to 100 scale
Summary of the method: as §1

[11] = tested on: wheat; assay: Test A preemergence; assay type: in vivo, Triticum aestivum; conditions: 0 to 100 scale
Summary of the method: as §1

[12] = tested on: rice; assay: Test B flooded paddy test; assay type: in vivo, Oryza sativa; conditions: 250 g ai/ha, Flood, 13 days, 0 to 100 scale (0 no effect, 100 complete control)
Summary of the method: (§2)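 Flooded to 3 cm at treatment time, 2-leaf plants got the test compound applied straight into the paddy water. They then stayed under constant flood in a greenhouse for 13 days. Ratings used a 0 to 100 visual scale.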

[13] = tested on: barnyardgrass; assay: Test A postemergence; assay type: in vivo, Echinochloa crusgalli; conditions: postemergence, 10 days; for Barnyardgrass plant response rating: 125 g ai/ha, 0 to 100 scale, 0 no effect, 100 complete control; for Plant response rating, Barnyardgrass: 500 g ai/ha, visual injury, 0 to 100 scale (0 no effect, 100 complete control)
Summary of the method: as §1

[14] = tested on: ducksalad; assay: Test B flooded paddy test; assay type: in vivo, Heteranthera limosa; conditions: 250 g ai/ha, Flood, 13 days, 0 to 100 scale (0 no effect, 100 complete control)
Summary of the method: as §2

[15] = tested on: foxtail, giant; assay: Test A postemergence; assay type: in vivo, Setaria faberi; conditions: postemergence, 10 days; for Foxtail, Giant plant response rating: 125 g ai/ha, 0 to 100 scale, 0 no effect, 100 complete control; for Plant response rating, Foxtail, Giant: 500 g ai/ha, visual injury, 0 to 100 scale (0 no effect, 100 complete control)
Summary of the method: as §1

[16] = tested on: blackgrass; assay: Test A postemergence; assay type: in vivo, Alopecurus myosuroides; conditions: postemergence, 10 days; for Blackgrass plant response rating: 125 g ai/ha, 0 to 100 scale, 0 no effect, 100 complete control; for Plant response rating, Blackgrass: 500 g ai/ha, visual injury, 0 to 100 scale (0 no effect, 100 complete control)
Summary of the method: as §1

[17] = tested on: horseweed; assay: Test A postemergence; assay type: in vivo, Erigeron canadensis; conditions: postemergence, 10 days; for Horseweed plant response rating: 125 g ai/ha, 0 to 100 scale, 0 no effect, 100 complete control; for Plant response rating, Horseweed: 500 g ai/ha, visual injury, 0 to 100 scale (0 no effect, 100 complete control)
Summary of the method: as §1

[18] = tested on: kochia; assay: Test A postemergence; assay type: in vivo, Bassia scoparia; conditions: postemergence, 10 days; for Kochia plant response rating: 125 g ai/ha, 0 to 100 scale, 0 no effect, 100 complete control; for Plant response rating, Kochia: 500 g ai/ha, visual injury, 0 to 100 scale (0 no effect, 100 complete control)
Summary of the method: as §1

[19] = tested on: barnyardgrass; assay: Test B flooded paddy test; assay type: in vivo, Echinochloa crus-galli; conditions: 250 g ai/ha, Flood, 13 days, 0 to 100 scale (0 no effect, 100 complete control)
Summary of the method: as §2

[20] = tested on: sedge, umbrella; assay: Test B flooded paddy test; assay type: in vivo, Cyperus difformis; conditions: 250 g ai/ha, Flood, 13 days, 0 to 100 scale (0 no effect, 100 complete control)
Summary of the method: as §2

[21] = tested on: galium; assay: Test A postemergence; assay type: in vivo, Galium aparine; conditions: postemergence, 10 days; for Galium plant response rating: 125 g ai/ha, 0 to 100 scale, 0 no effect, 100 complete control; for Plant response rating, Galium: 500 g ai/ha, visual injury, 0 to 100 scale (0 no effect, 100 complete control)
Summary of the method: as §1

[22] = tested on: kochia; assay: Test A preemergence; assay type: in vivo, Bassia scoparia; conditions: 0 to 100 scale
Summary of the method: as §1

[23] = tested on: barnyardgrass; assay: Test A preemergence; assay type: in vivo, Echinochloa crusgalli; conditions: visual injury after 10 days, 0 to 100 scale, 0 is no effect, 100 is complete control
Summary of the method: as §1

[24] = tested on: soybean; assay: Test A postemergence; assay type: in vivo, Glycine max; conditions: postemergence, 10 days; for Soybean plant response rating: 125 g ai/ha, 0 to 100 scale, 0 no effect, 100 complete control; for Plant response rating, Soybean: 500 g ai/ha, visual injury, 0 to 100 scale (0 no effect, 100 complete control)
Summary of the method: as §1

[25] = tested on: oat, wild; assay: Test A preemergence; assay type: in vivo, Avena fatua; conditions: 0 to 100 scale
Summary of the method: as §1

[26] = tested on: ragweed; assay: Test A postemergence; assay type: in vivo, Ambrosia artemisiifolia; conditions: postemergence, 10 days; for Ragweed plant response rating: 125 g ai/ha, 0 to 100 scale, 0 no effect, 100 complete control; for Plant response rating, Ragweed: 500 g ai/ha, visual injury, 0 to 100 scale (0 no effect, 100 complete control)
Summary of the method: as §1

[27] = tested on: ryegrass, Italian; assay: Test A postemergence; assay type: in vivo, Lolium multiflorum; conditions: postemergence, 10 days; for Ryegrass, Italian plant response rating: 125 g ai/ha, 0 to 100 scale, 0 no effect, 100 complete control; for Plant response rating, Ryegrass, Italian: 500 g ai/ha, visual injury, 0 to 100 scale (0 no effect, 100 complete control)
Summary of the method: as §1

[28] = tested on: corn; assay: Test A postemergence; assay type: in vivo, Zea mays; conditions: postemergence, 10 days; for Corn plant response rating: 125 g ai/ha, 0 to 100 scale, 0 no effect, 100 complete control; for Plant response rating, Corn: 500 g ai/ha, visual injury, 0 to 100 scale (0 no effect, 100 complete control)
Summary of the method: as §1

[29] = 500 g ai/ha, visual injury after 10 days, 0 is no effect, 100 is complete control
[30] = 125 g ai/ha, visual injury after 10 days, 0 is no effect, 100 is complete control

CC(C)c1ncn(-c2ccc(C#N)c(C(=O)N3C[C@H](C)Oc4c(Cl)cccc43)c2)n1 [Compound 140]
Pigweed, Palmer plant response rating [1]: 70
Plant response rating, Pigweed, Palmer [1]: 90
Plant response rating, Foxtail, Giant ([2]; 125 g ai/ha): 90
Plant response rating, Foxtail, Giant [2, 29]: 100
Plant response rating, Ryegrass, Italian ([3]; 125 g ai/ha): 50
Plant response rating, Ryegrass, Italian [3, 29]: 70
Plant response rating, Soybean ([4]; 125 g ai/ha): 50
Plant response rating, Soybean [4, 29]: 100
Plant response rating, Blackgrass ([5]; 125 g ai/ha): 40
Plant response rating, Blackgrass [5, 29]: 70
Plant response rating, Pigweed, Palmer ([6]; 125 g ai/ha): 100
Plant response rating, Pigweed, Palmer [6, 29]: 100
Wheat plant response rating [7]: 30
Plant response rating, Wheat [7]: 60
Oat, Wild plant response rating [8]: 0
Plant response rating, Oat, Wild [8]: 50
Plant response rating, Ragweed ([9]; 125 g ai/ha): 0
Plant response rating, Ragweed [9, 29]: 30
Plant response rating, Corn ([10]; 125 g ai/ha): 0
Plant response rating, Corn [10, 29]: 10
Plant response rating, Wheat ([11]; 125 g ai/ha): 20
Plant response rating, Wheat [11, 29]: 50
Plant response rating, Rice [12]: 0
Barnyardgrass plant response rating [13]: 50
Plant response rating, Barnyardgrass [13]: 70
Plant response rating, Ducksalad [14]: 40
Foxtail, Giant plant response rating [15]: 90
Plant response rating, Foxtail, Giant [15]: 90
Blackgrass plant response rating [16]: 70
Plant response rating, Blackgrass [16]: 80
Horseweed plant response rating [17]: 0
Plant response rating, Horseweed [17]: 0
Kochia plant response rating [18]: 90
Plant response rating, Kochia [18]: 90
Plant response rating, Barnyardgrass [19]: 20
Plant response rating, Sedge, Umbrella [20]: 75
Galium plant response rating [21]: 70
Plant response rating, Galium [21]: 70
Plant response rating, Kochia ([22]; 125 g ai/ha): 80
Plant response rating, Kochia [22, 29]: 90
Plant response rating, Barnyardgrass ([23]; 125 g ai/ha): 90
Plant response rating, Barnyardgrass ([23]; 500 g ai/ha): 90
Soybean plant response rating [24]: 100
Plant response rating, Soybean [24]: 100
Plant response rating, Oat, Wild ([25]; 125 g ai/ha): 30
Plant response rating, Oat, Wild [25, 29]: 70
Ragweed plant response rating [26]: 20
Plant response rating, Ragweed [26]: 40
Ryegrass, Italian plant response rating [27]: 40
Plant response rating, Ryegrass, Italian [27]: 50
Corn plant response rating [28]: 70
Plant response rating, Corn [28]: 90

CC(C)Cc1ncn(-c2cccc(C(=O)N3C[C@H](C)Oc4c(Cl)cccc43)c2)n1 [Compound 112]
Pigweed, Palmer plant response rating [1]: 50
Plant response rating, Pigweed, Palmer [1]: 90
Plant response rating, Foxtail, Giant [2, 30]: 50
Plant response rating, Foxtail, Giant [2, 29]: 90
Plant response rating, Ryegrass, Italian [3, 30]: 40
Plant response rating, Ryegrass, Italian [3, 29]: 90
Plant response rating, Soybean [4, 30]: 0
Plant response rating, Soybean [4, 29]: 50
Plant response rating, Blackgrass [5, 30]: 20
Plant response rating, Blackgrass [5, 29]: 80
Plant response rating, Pigweed, Palmer [6, 30]: 50
Plant response rating, Pigweed, Palmer [6, 29]: 100
Wheat plant response rating [7]: 10
Plant response rating, Wheat [7]: 20
Oat, Wild plant response rating [8]: 10
Plant response rating, Oat, Wild [8]: 30
Plant response rating, Ragweed [9, 30]: 0
Plant response rating, Ragweed [9, 29]: 40
Plant response rating, Corn [10, 30]: 0
Plant response rating, Corn [10, 29]: 0
Plant response rating, Wheat [11, 30]: 20
Plant response rating, Wheat [11, 29]: 40
Plant response rating, Rice [12]: 0
Barnyardgrass plant response rating [13]: 10
Plant response rating, Barnyardgrass [13]: 40
Plant response rating, Ducksalad [14]: 0
Foxtail, Giant plant response rating [15]: 20
Plant response rating, Foxtail, Giant [15]: 70
Blackgrass plant response rating [16]: 0
Plant response rating, Blackgrass [16]: 60
Horseweed plant response rating [17]: 0
Plant response rating, Horseweed [17]: 0
Kochia plant response rating [18]: 70
Plant response rating, Kochia [18]: 90
Plant response rating, Barnyardgrass [19]: 0
Plant response rating, Sedge, Umbrella [20]: 0
Galium plant response rating [21]: 90
Plant response rating, Galium [21]: 100
Plant response rating, Kochia [22, 30]: 0
Plant response rating, Kochia [22, 29]: 60
Plant response rating, Barnyardgrass ([23]; 125 g ai/ha): 40
Plant response rating, Barnyardgrass ([23]; 500 g ai/ha): 100
Soybean plant response rating [24]: 90
Plant response rating, Soybean [24]: 100
Plant response rating, Oat, Wild [25, 30]: 0
Plant response rating, Oat, Wild [25, 29]: 20
Ragweed plant response rating [26]: 0
Plant response rating, Ragweed [26]: 0
Ryegrass, Italian plant response rating [27]: 10
Plant response rating, Ryegrass, Italian [27]: 60
Corn plant response rating [28]: 20
Plant response rating, Corn [28]: 40
